Experimental data reported in article PMC7819857, “Identification of Inhibitors of Integrin Cytoplasmic Domain Interactions With Syk” (Frontiers in Immunology, 2021).

How the values were obtained:
[1] = target: T1, integrin β3 cytoplasmic domain (bβ3(fl)) : GST-Syk(6-370) (Homo sapiens, UniProt P43405); test: ELISA-based orthogonal assay, bβ3(fl) and GST-Syk(6-370); type: binding
T1 construct: the tandem SH2 domains of Syk (residues 6-370); made in house; host or cells: E. coli BL21(DE3)
Method: For ELISA-based assays, 96-well plates (Costar cat# 9018) were coated overnight at 4°C with neutravidin (Thermo Scientific, cat#31050) in 10 mM Tris pH 9 and 100 mM NaCl. After overnight incubation, non-specific binding sites were blocked with bovine serum albumin (BSA) (2% w/v) for at least 1 h at room temperature. Plates were washed in 25 mM HEPES pH 7.5, 100 mM NaCl, 0.1% BSA, and 0.01% TritonX-100 (assay buffer), and indicated biotinylated β3 peptide was incubated for at least 2 h at room temperature (0.5–3 ug/ml in di-H2O). After washing in the assay buffer, GST-fusion proteins were added (50 ul, indicated concentrations) and incubated at room temperature for 1 h in assay buffer. For compound inhibition studies, compounds were added to GST-fusion proteins (at indicated concentrations) before they were added to plates. Plates were washed 3× with assay buffer (200 ul) to remove unbound GST-fusion protein. Horseradish peroxidase (HRP)-conjugated anti-GST antibody [Polyclonal anti-GST(Z-5)-HRP, Santa Cruz Biotechnology, cat #sc-459 0.2 ug/ml] was incubated in washed plates in 50 ul assay buffer for 45 min at room temperature. After washing, the signal was generated with 1-step Ultra TMB-ELISA (Thermo Scientific, cat#34028), stopped with 2 N H2SO4, and read on a plate reader (SPARK 10M/Tecan) at 450 nm.
Figure 3 Dose-response curves in primary and orthogonal screens. (A) AlphaScreen dose-response curves. […] Data are expressed as mean fluorescence (Fl520) ± range from duplicates, and one representative experiment of “n” performed is shown. (B) Orthogonal ELISA-based dose-response assays. […] Data are expressed as mean abs450 ± SEM from triplicate determinations, and one of three representative experiments is shown. (C) Ceftazidime inhibition of β3 peptide binding to Syk from THP-1 whole cell lysate. THP-1 cell lysate (100 ug) was treated with or without ceftazidime (Ctaz) before incubation with β3-coated avidin-agarose beads, and bound Syk was measured by western blot (example shown in inset). Blank beads served as a negative control. […]

[2] = system: Pyk-2 phosphorylation in THP-1 cells; test: Integrin α4β1-induced phosphorylation of Pyk-2 in THP-1 cells plated on CS-1; type: cell-based, human; conditions: 100 µM loaded by glycerol shock
Method: Syk phosphorylation assays were performed by immobilizing vascular cell adhesion molecule-1 (VCAM)-1 (3 ug/ml), CS-1-BSA (10 ug/ml), or specific monoclonal antibodies (anti-FcγRI mAb 276426, anti-α4β1 mAb 19H8, anti-β2 mAb 76C3, anti-αvβ3 mAb LM609 all at 5 ug/ml) overnight at 4°C in Tris-HCl pH 7.5, 150 mM NaCl, in 6-well plates (non-tissue culture treated, Becton Dickenson, cat# BD351146). Plates were then blocked with BSA (2% w/v) for 1 h at room temperature. […] After electrophoresis, proteins were transferred to nitrocellulose for 1 h 100 V room temperature, blocked in 5% non-fat milk in TBS-T, and probed with the indicated primary antibody at 1:1,000 overnight at 4°C, followed by species-appropriate HRP secondary antibody (Southern Biotech) at 1:5,000 (30 min at room temperature), and detected using Pierce West Pico (Thermo Scientific cat# 34580). […]
Figure 6 Selective inhibition of integrin signaling by ceftazidime. […] Data are expressed as mean ± range from duplicate determinations. […] Kinase activity is expressed as percent of maximum signal. Data are expressed as mean ± SEM (n = 3). **p < 0.01 (D) Selective effects of ceftazidime on integrin signaling. […] Phosphorylation of Syk (left and right panel) and Pyk-2 (center panel) was analyzed by immunoprecipitation and western blot. […] Results are expressed as the mean ± SEM. […]

CC(C)(O/N=C(\C(=O)N[C@@H]1C(=O)N2C(C(=O)[O-])=C(C[n+]3ccccc3)CS[C@H]12)c1csc(N)n1)C(=O)O [ceftazidime]
inhibitory activity in ELISA-based orthogonal assay [1]: remained active
integrin α4β1 induced phosphorylation of Pyk-2 [2]: inhibited
